Literature values as cited in patent publication US20110086017A1, “Medical Food composition and methods for management of inflammatory processes in mammals” (priority 2009, published 2011).

Tested on: plasma exudate at the site of inflammation
Settings: animal study; by decreasing bradykinin and pre-kallikrein levels

Bromelain
plasma exudate at the site of inflammation: dose-dependently reduced plasma exudate
